# Test results as given in patent US20150290232A1, “DRUG COMPOSITION FOR TREATING TUMORS AND APPLICATION THEREOF” (priority 2012, published 2015).
# How the values were obtained:
# Type in all cases: cell-based
# [1] = system: Jurkat cells (acute lymphoblastic leukemia); assay: MTT cell viability, leukemia cells, TTD and Acla A alone and combined; conditions: Homo sapiens, 72 h
# Description: (§1) Well-growing leukemia cells were obtained and inoculated into wells of a 96-well cell culture plate at 5000 cells/well. Individual compounds of various concentrations were added, mixed uniformly, and incubated (5% CO2) at 37° C. for 72 hours. Then the cell viability was determined by the MTT method.
# (§2) b) Determine the inhibitory effects of TTD in combination with Ada A on leukemia cells in vitro. The pretreatment of the cells was the same as in a). The control group was not treated with the compound while administered. […] After 72 hours of incubation, the MTT method was used for the determination of cell viability. The cell viability of the control group was set to 100% in this experiment, and the TTD, Ada A single drug and combined effects on cell viability (%) were calculated.
# [2] = system: k562/ADR leukemia cells (drug-resistant chronic myeloid leukemia); assay: as above; conditions: Homo sapiens, K562/Adr, 72 h
# Description: as §1, §2
# [3] = system: kasumi-1 cells (acute myeloid leukemia M2 type); assay: as above; conditions: Homo sapiens, Kasumi 1, 72 h
# Description: as §1, §2
# [4] = system: RPMI 8226 (multiple myeloma); assay: MTT cell viability, lymphoma and myeloma cells; conditions: Homo sapiens, RPMI-8226, 72 h
# Description: (§3) Well-growing cells of above were obtained and inoculated into wells of a 96-well cell culture plate at 5000 cells/well. Separate compounds of various concentrations were added, mixed uniformly, and incubated (5% CO2) at 37° C. for 72 hours. Then the cell viability was determined by the MTT method.
# (§4) b) Determine the inhibitory effects of TTD in combination with Ada A on the above cells. The pretreatment of the cells was the same as in a). The control group was not treated with the compound while administered. […] As to the combination group, two compounds were added together into the same group of wells, with the fmal concentrations being the concentrations to which the IC50 values of the two single drugs correspond. After 72 hours of incubation, the MTT method was used for the determination of cell viability. The cell viability of the control group was set to 100% in this experiment, and the TTD, Ada A single drug and combined effects on cell viability (%) were calculated.
# [5] = system: Raji (human Burkitt lymphoma cells); assay: MTT cell viability, lymphoma and myeloma cells; conditions: 72 h
# Description: as §3, §4
# [6] = system: CaES-17 (esophageal cancer cell); assay: MTT cell viability, human solid tumor cells; conditions: CaEs17, 72 h
# Description: (§5) Well-growing cells of above were obtained and inoculated into wells of a 96-well cell culture plate at 5000 cells/well. Individual compounds of various concentrations were added, mixed uniformly, and incubated (5% CO2) at 37° C. for 72 hours. Then the cell viability was determined by the MTT method.
# b) Determine the inhibitory effects of TTD in combination with Ada A on the human solid tumor cells. The pretreatment of the cells was the same as in a). The control group was not treated with the compound while administered. The two single-drug groups were added with respective active component to the concentration under which the IC50 of two compounds in a) achieve. As to the combination group, two compounds were added together into the same group of wells, with the fmal concentration being the concentration to which the IC50 of the single drugs correspond. After 72 hours of incubation, the MTT method was used for the determination of cell viability. The cell viability of the control group was set to 100% in this experiment, and the TTD, Ada A single drug and combined effects on cell viability (%) were calculated.
# [7] = system: Becap-37 (human breast cancer cell); assay: MTT cell viability, human solid tumor cells; conditions: 72 h
# Description: as §5
# as §4, with “human solid tumor” for “above”, “concentration” for “concentrations”, “IC50” for “IC50 values”, “the” for “the two”
# [8] = system: CNE (nasopharyngeal carcinoma cell); assay: MTT cell viability, human solid tumor cells; conditions: 72 h
# Description: as §5
# as §4, with “human solid tumor” for “above”, “concentration” for “concentrations”, “IC50” for “IC50 values”, “the” for “the two”
# [9] = system: Hela (human cervical cancer cell); assay: MTT cell viability, human solid tumor cells; conditions: HeLa, 72 h
# Description: as §5
# as §4, with “human solid tumor” for “above”, “concentration” for “concentrations”, “IC50” for “IC50 values”, “the” for “the two”
# [10] = system: Hep G2 (human hepatoma carcinoma cell); assay: MTT cell viability, human solid tumor cells; conditions: HepG2, 72 h
# Description: as §5
# as §4, with “human solid tumor” for “above”, “concentration” for “concentrations”, “IC50” for “IC50 values”, “the” for “the two”
# [11] = system: Hep2 (laryngeal carcinoma); assay: MTT cell viability, human solid tumor cells; conditions: HEp-2, 72 h
# Description: as §5
# as §4, with “human solid tumor” for “above”, “concentration” for “concentrations”, “IC50” for “IC50 values”, “the” for “the two”
# [12] = system: Huh7 (human liver cancer cell); assay: MTT cell viability, human solid tumor cells; conditions: Huh-7, 72 h
# Description: as §5
# as §4, with “human solid tumor” for “above”, “concentration” for “concentrations”, “IC50” for “IC50 values”, “the” for “the two”
# [13] = system: MGC-803 (human gastric cancer cell); assay: MTT cell viability, human solid tumor cells; conditions: MGC-803, 72 h
# Description: as §5
# as §4, with “human solid tumor” for “above”, “concentration” for “concentrations”, “IC50” for “IC50 values”, “the” for “the two”
# PC-3 (prostate cancer) = assay: MTT cell viability, human solid tumor cells; conditions: 72 h
# Description: as §5
# as §4, with “human solid tumor” for “above”, “concentration” for “concentrations”, “IC50” for “IC50 values”, “the” for “the two”
# [14] = system: Panc-1 (pancreatic cancer); assay: MTT cell viability, human solid tumor cells; conditions: PANC-1, 72 h
# Description: as §5
# as §4, with “human solid tumor” for “above”, “concentration” for “concentrations”, “IC50” for “IC50 values”, “the” for “the two”
# [15] = system: RKO (human colon adenocarcinoma cell); assay: MTT cell viability, human solid tumor cells; conditions: 72 h
# Description: as §5
# as §4, with “human solid tumor” for “above”, “concentration” for “concentrations”, “IC50” for “IC50 values”, “the” for “the two”
# [16] = system: SPC-A-1 (human lung adenocarcinoma cell); assay: MTT cell viability, human solid tumor cells; conditions: SPCA1, 72 h
# Description: as §5
# as §4, with “human solid tumor” for “above”, “concentration” for “concentrations”, “IC50” for “IC50 values”, “the” for “the two”
# [17] = system: U87-MG (malignant glioma cell); assay: MTT cell viability, human solid tumor cells; conditions: U-87 MG, 72 h
# Description: as §5
# as §4, with “human solid tumor” for “above”, “concentration” for “concentrations”, “IC50” for “IC50 values”, “the” for “the two”
# [18] = read-out: concentration (IC50 value of 72 hours)
smiles,measurement,setting,value
"CC[C@@]1(O)C[C@H](O[C@H]2C[C@H](N(C)C)[C@H](O[C@H]3C[C@H](O)[C@H](O[C@H]4CCC(=O)[C@H](C)O4)[C@H](C)O3)[C@H](C)O2)c2c(cc3c(c2O)C(=O)c2c(O)cccc2C3=O)[C@H]1C(=O)OC [Acla A, aclarubicin A]",viability at 0.029 µg/mL,[1]; read-out: CV (cell viability),58%
same,IC50,[1]; [18],0.029 µg/mL
same,viability at 0.09 µg/mL,[2]; read-out: CV (cell viability),49.1%
same,IC50,[2]; [18],0.09 µg/mL
same,viability at 0.04 µg/mL,[3]; read-out: CV (cell viability),52.5%
same,IC50,[3]; [18],0.04 µg/mL
same,viability at 0.035 µg/mL,[4]; read-out: CV (cell viability),42.1%
same,IC50,[4]; [18],0.035 µg/mL
same,viability at 0.03 µg/mL,[5]; read-out: CV (cell viability),42.6%
same,IC50,[5]; [18],0.03 µg/mL
same,viability at 0.24 µg/mL,[6]; read-out: CV (cell viability),45.4%
same,IC50,[6]; [18],0.24 µg/mL
same,viability at 0.5 µg/mL,[7]; read-out: CV (cell viability),44.8%
same,IC50,[7]; [18],0.5 µg/mL
same,viability at 0.15 µg/mL,[8]; read-out: CV (cell viability),48.9%
same,IC50,[8]; [18],0.15 µg/mL
same,viability at 0.095 µg/mL,[9]; read-out: CV (cell viability),52.7%
same,IC50,[9]; [18],0.095 µg/mL
same,viability at 0.25 µg/mL,[10]; read-out: CV (cell viability),51.6%
same,IC50,[10]; [18],0.25 µg/mL
same,viability at 0.25 µg/mL,[11]; read-out: CV (cell viability),51%
same,IC50,[11]; [18],0.25 µg/mL
same,viability at 0.05 µg/mL,[12]; read-out: CV (cell viability),44.5%
same,IC50,[12]; [18],0.05 µg/mL
same,viability at 0.1 µg/mL,[13]; read-out: CV (cell viability),42.2%
same,IC50,[13]; [18],0.1 µg/mL
same,viability at 0.8 µg/mL,PC-3 (prostate cancer); read-out: CV (cell viability),46.1%
same,IC50,PC-3 (prostate cancer); [18],0.8 µg/mL
same,viability at 0.25 µg/mL,[14]; read-out: CV (cell viability),58%
same,IC50,[14]; [18],0.25 µg/mL
same,viability at 0.04 µg/mL,[15]; read-out: CV (cell viability),49.6%
same,IC50,[15]; [18],0.04 µg/mL
same,viability at 0.03125 µg/mL,[16]; read-out: CV (cell viability),50.6%
same,IC50,[16]; [18],0.0312 µg/mL
same,viability at 0.21 µg/mL,[17]; read-out: CV (cell viability),54.1%
same,IC50,[17]; [18],0.21 µg/mL
